Measured values published in US20250049926A1, “PHARMACEUTICAL COMPOSITIONS COMPRISING MODIFIED BETACYCLODEXTRINS” (priority 2021, published 2025).

Legend:
[1] = Solubility measurement of saturated solutions by HPLC at room temperature (0 h and 24 h); assay type: physicochemical; conditions: for solubility at 24 h / solubility at 0 h: thermodynamic from solid
Method: The vial contents are prepared starting with 2.5 mg of the compound of formula (I). The primary excipient is added followed by any further excipient and then the buffered water to a total volume of 500 μL. All components are mixed in a vortex mixer for ca. 5 minutes. If everything is dissolved an additional 2.5 mg of the compound of formula (I) is added and vortexed again for ca. 5 minutes. This is repeated until a saturated solution (suspension) is obtained.
The solubility in vial 1 is measured immediately as described below.
To measure solubility 400 μl of the suspension are taken and placed in a centrifugation device above a 0.2 μm filter. Centrifugation is performed at 14,000 rpm for 10 minutes and if necessary repeated for additional 10 minutes. The filter is removed from the vial and 100 μL is taken and diluted with 400 μL high-performance liquid chromatography (HPLC) diluent solution (see below) or diluted with 900 μL HPLC diluent solution in the event 5 mg or more of the compound of formula (I) was used. The pH of the solution is measured. A further 100 μL of the vial solution is taken and diluted with 400 μL of HPLC diluent solution or diluted with 900 μL HPLC diluent solution in the event 5 mg or more of the compound of formula (I) was used. The assay of the solution versus control stock solution is measured by HPLC and the solubility is calculated as described below. The HPLC diluent solution is 0.1% trifluoroacetic acid (TFA) in acetonitrile (ACN) and water (1:1 v/v).
All solubility tests are performed at room temperature.
The HPLC method for assessing solubility is performed as follows:
The solubility of the compound of formula (I) is calculated according to the following formula:
[formula] • Solubility=solubility of compound of formula (I) (mg/mL) • A=peak area of the compound of the sample tested • a=value of constant “a” in Linear regression equation y=ax+b • b=value of constant “b” in Linear regression equation y=ax+b • n=dilution time • Formulations for stability assessment are prepared as follows: […]

Log P of free base = assay type: physicochemical
Method: (§1) The compound of formula (I) as a free base compound has a quite strong lipophilic behavior (Log P 4.13). […] Taking into account these characteristics, and based on pH requirements for intravenous (IV) solutions which is generally set ≥4.0, solubility studies were carried out to identify solubilizers able to substantially increase the aqueous solubility of the compound of formula (I).

[2] = Solubility in water as a function of pH; assay type: physicochemical; conditions: aqueous buffer, pH≥4.5 (practically insoluble)
Method: as §1

mouse tumor models = experiment: Single agent administration in mouse tumor models; assay type: in vivo
Excerpt: However the compound of formula (I) has low aqueous solubility, leading to the possibility of limited exposure in humans.

[3] = buffered water with excipients, pH 7, aqueous with cosolvent or surfactant or cyclodextrin, CBS 30 mM pH 7.0, NaCl 3 mg/mL, SBE-beta-CD 40 mg/mL, pH exp 7.0

- solubility at 24 h ([1]; buffered water with excipients, pH 4, aqueous with cosolvent or surfactant or cyclodextrin, CBS 30 mM pH 4.0, NaCl 6 mg/mL, SBE-beta-CD 40 mg/mL + Propylene glycol 10 mg/mL, pH exp 4.2): 3650 µg/mL
- solubility at 0 h ([1]; buffered water with excipients, pH 4, aqueous with cosolvent or surfactant or cyclodextrin, CBS 30 mM pH 4.0, NaCl 6 mg/mL, SBE-beta-CD 40 mg/mL + Propylene glycol 20 mg/mL, pH exp 4.1): 2310 µg/mL
- solubility at 24 h ([1]; buffered water with excipients, pH 4, aqueous with cosolvent or surfactant or cyclodextrin, CBS 30 mM pH 4.0, NaCl 6 mg/mL, SBE-beta-CD 40 mg/mL + Propylene glycol 20 mg/mL, pH exp 4.2): 3440 µg/mL
- solubility at 0 h ([1]; buffered water with excipients, pH 4, aqueous with cosolvent or surfactant or cyclodextrin, CBS 30 mM pH 4.0, NaCl 6 mg/mL, SBE-beta-CD 40 mg/mL + Propylene glycol 30 mg/mL, pH exp 4.1): 2150 µg/mL
- solubility at 24 h ([1]; buffered water with excipients, pH 4, aqueous with cosolvent or surfactant or cyclodextrin, CBS 30 mM pH 4.0, NaCl 6 mg/mL, SBE-beta-CD 40 mg/mL + Propylene glycol 30 mg/mL, pH exp 4.2): 3350 µg/mL
- solubility at 0 h ([1]; buffered water with excipients, pH 4, aqueous with cosolvent or surfactant or cyclodextrin, CBS 30 mM pH 4.0, SBE-beta-CD 54 mg/mL + Ethanol 16 mg/mL, pH exp 4.1): 2490 µg/mL
- solubility at 24 h ([1]; buffered water with excipients, pH 4, aqueous with cosolvent or surfactant or cyclodextrin, CBS 30 mM pH 4.0, SBE-beta-CD 54 mg/mL + Ethanol 16 mg/mL, pH exp 4.3): 3850 µg/mL
- solubility at 0 h ([1]; buffered water with excipients, pH 4, aqueous with cosolvent or surfactant or cyclodextrin, CBS 30 mM pH 4.0, SBE-beta-CD 54 mg/mL + PEG 300 56 mg/mL, pH exp 4.2): 2890 µg/mL
- solubility at 24 h ([1]; buffered water with excipients, pH 4, aqueous with cosolvent or surfactant or cyclodextrin, CBS 30 mM pH 4.0, SBE-beta-CD 54 mg/mL + PEG 300 56 mg/mL, pH exp 4.3): 4030 µg/mL
- solubility at 0 h ([1]; buffered water with excipients, pH 4, aqueous with cosolvent or surfactant or cyclodextrin, CBS 30 mM pH 4.0, SBE-beta-CD 56 mg/mL + PEG 400 22 mg/mL, pH exp 4.2): 2810 µg/mL
- solubility at 24 h ([1]; buffered water with excipients, pH 4, aqueous with cosolvent or surfactant or cyclodextrin, CBS 30 mM pH 4.0, SBE-beta-CD 56 mg/mL + PEG 400 22 mg/mL, pH exp 4.3): 4060 µg/mL
- solubility at 0 h ([1]; buffered water with excipients, pH 4, aqueous with cosolvent or surfactant or cyclodextrin, GBS (gluconate) 30 mM pH 4.0, NaCl 3 mg/mL, SBE-beta-CD 40 mg/mL, pH exp 4.1): 2590 µg/mL
- solubility at 24 h ([1]; buffered water with excipients, pH 4, aqueous with cosolvent or surfactant or cyclodextrin, GBS (gluconate) 30 mM pH 4.0, NaCl 3 mg/mL, SBE-beta-CD 40 mg/mL, pH exp 4.5): 3940 µg/mL
- solubility at 0 h ([1]; buffered water with excipients, pH 4, aqueous with cosolvent or surfactant or cyclodextrin, LBS (lactate) 30 mM pH 4.0, NaCl 3 mg/mL, SBE-beta-CD 40 mg/mL, pH exp 4.1): 2690 µg/mL
- solubility at 24 h ([1]; buffered water with excipients, pH 4, aqueous with cosolvent or surfactant or cyclodextrin, LBS (lactate) 30 mM pH 4.0, NaCl 3 mg/mL, SBE-beta-CD 40 mg/mL, pH exp 4.3): 3980 µg/mL
- solubility at 24 h ([1]; buffered water with excipients, pH 5.5, aqueous with cosolvent or surfactant or cyclodextrin, CBS 30 mM pH 5.5, NaCl 3 mg/mL, SBE-beta-CD 40 mg/mL, pH exp 5.7): 3100 µg/mL
- solubility at 0 h [1, 3]: 2230 µg/mL
- solubility at 24 h [1, 3]: 2230 µg/mL
- solubility at 0 h ([1]; buffered water without excipient (saturated solution), pH 4, aqueous buffer, CBS 30 mM pH 4.0, no excipient, pH exp 4.0): 160 µg/mL
- solubility at 24 h ([1]; buffered water without excipient (saturated solution), pH 4, aqueous buffer, CBS 30 mM pH 4.0, no excipient, pH exp 4.2): 120 µg/mL
- effect of buffer on solubility with SBE-beta-CD ([1]; citrate acid, acetic acid, gluconic acid, lactic acid and aspartic acid buffer): approximately the same
- solubility (in words) ([1]; other solubilizers at concentrations suitable for intravenous use, including hydroxypropyl beta-cyclodextrin): Low solubility
- effect of additional excipient on solubility with SBE-beta-CD ([1]; saline): very small impact on solubility
- solubility (in words) ([1]; with SBE-beta-CD at concentrations of solubilizer suitable for intravenous use): High solubility
- solubility (in words) ([1]; with SBE-beta-CD, at higher pH): lower solubility
- solubility (in words) ([1]; with SBE-beta-CD, between pH 4 to pH 5.5): High solubility
- logP (Log P of free base): 4.13
- solubility [2]: ≤ 20 µg/mL
Structure (SMILES): COc1cc(N2CCNCC2)ccc1Nc1ncc2c(n1)-n1ccc(C(=O)Nc3c(C)cccc3C)c1CC2 [compound of formula (I)]
- tumor response (mouse tumor models): regressions (and cures)
